We go through 7 molecules from patent publication US8415156B2, “Recombinant laminin-521” (Biolamina AB, priority 2010, dated 2013).

Experiment [1] relates to hES cells. The experiment in a line: Cell survival assay, 24 hours (Example 2). As to conditions: for survival of hES cells plated from single cell suspension after 24 hours: O3 medium, absence of ROCK inhibitor. The class given is cell-based, human. On the procedure: Tissue cell culture plates were coated overnight at 4° C. with sterile solutions of the ECM proteins, such as human recombinant LN-521, all at a concentration of 30 μg/ml (5 μg/cm^2). Control plates were coated with Matrigel according to the STEMCELL Technologies' instructions. Prior to use, dishes were pre-warmed in an incubator for one hour after which prewarmed O3 medium was added without additional washing of the dish. After applying a fresh LN-521 solution to a new dish, the remaining LN-521 solution could be used at least once more. All the adhesion, survival, and inhibition of survival experiments were carried out using fresh coating materials.
Briefly, 96-well plates were coated by extracellular matrix proteins as described above and blocked by O3 medium containing bovine serum albumin. The ES cells were plated at cell density of 50,000 cells/cm^2 onto extracellular matrix-coated plates and left to adhere for 1 hour in a cell incubator. After that the plates were washed 3 times with the medium to remove the non-adherent cells, and then the adherent cells were fixed for 20 minutes by 5% glutaraldehyde, stained by 0.1% Crystal Violet. (Kebo Lab, Spanga, Sweden, www.kebolab.se). After one hour and 3 washes with water, Crystal Violet was extracted with 10% acetic acid and quantified by measuring optical density at 570 nm. All the experiments were performed in quadruplicate.
The survival assay was performed as described for the cell adhesion assay above, except that the cells were left in the cell incubator for 24 hours. For inhibition of survival assay, the cells were kept in a medium with function blocking antibodies at the concentrations recommended by the manufacturer or pathway inhibitors at concentrations indicated in the text for 30 minutes, and then plated on the coated dishes. All the experiments were performed in quadruplicate.
Pluripotent hES cells express α1, α5, β1, β2 and γ1 laminin chains. To compare the adhesion and clonal survival of hES cells plated from single cell suspension to different coating substrata, hES cells growing as monolayers on LN-511 or as clusters on a feeder layer were trypsinized into single cell suspension in O3 medium and plated on cell culture dishes coated with Matrigel, LN-111, LN-511, LN-521 or a mixture of LN-511 and LN-521, in the absence or presence of a ROCK inhibitor (Y-27632) and analyzed after 24 hours.

The test system of another experiment is HS181 cells. The experiment can be described thus: Single cell survival / cell adhesion, 1 day after plating (Example 1). The class given is cell-based, human. As to conditions: for single cell survival / cells remaining attached 24 hours after plating: O3 medium without any additives, completely dissociated HS181 cells. How it is done:
Human ES cells were cultured on r-laminin-521-coated laboratory dishes in chemically defined O3 medium (described in Rodin et al., Nature Biotechnol., vol. 28, pp. 611-615 (2010)) at 37° C. in 5% CO2. Cells were routinely passed once every 10-12 days by exposure to Trypsin-EDTA solution (GIBCO Invitrogen) for 5 minutes at 37° C. They were then gently pipetted to break into single-cell suspension and defined trypsin inhibitor (GIBCO Invitrogen) was added. The cell suspension was centrifuged […], the supernatant discarded, the cell pellet resuspended in prewarmed O3 medium, and cells were then passed through a 40 μm sieve. After that cells were plated on new r-laminin-521-coated dishes at a concentration 30 Kcells/cm^2 (1:25-1:30 split ratio). Cells were fed once a day with fresh medium prewarmed in an incubator for 1 hour, except for the first day after a passage, when only a few drops of fresh medium were added. Control cells of the same line were cultured on Matrigel (BD Biosciences) in O3 medium as described in Rodin et al., Nature Biotechnol., vol. 28, pp. 611-615 (2010). Control cells were passaged in pieces.
Ninety-six-well tissue cell culture plates were coated overnight at 4° C. with sterile solutions of the ECM proteins mouse LN-111 (Invitrogen), human recombinant LN-511, and human recombinant LN-521, all at a concentration of 30 μg/ml (5 μg/cm^2). For control cells, BD Matrigel™ hESC qualified (BD Biosciences) was used according to the manufacturer's instructions.
The assay was performed as described (Extracellular Matrix Protocols, 2000). Briefly, 96-well plates were coated by extracellular matrix proteins as described above and blocked by O3 medium containing bovine serum albumin. The ES cells were plated at a cell density of 600 cell/mm^2 upon extracellular matrix-coated plates and were left to adhere for either 1 hour or 1 day at the cell incubator. Non-adherent cells were washed away, and adherent cells were fixed for 20 min by 5% glutaraldehyde, stained by 0.1% Crystal Violet.

A further experiment deals with human ES cells. The conditions noted are these: cited from earlier work.
Experiment [2] deals with human embryonic stem cell. The experiment in a line: Survival after dissociation into single cell suspension (description). The class given is cell-based. The conditions noted are these: O3 medium; 30 Kcells/cm^2; precoated dishes. An excerpt:
In other aspects, the present disclosure provides a new material, isolated laminin-521, which permits human embryonic stem cell survival after dissociation into single cell suspension. The stem cells were dissociated into single cell suspension by Trypsin-EDTA treatment, pelleted by centrifugation, resuspended into O3 medium, filtered through a 40 μm sieve, and plated at a density of 30 Kcells/cm^2 on cell culture dishes precoated by either isolated laminin-521, laminin-511, or Matrigel. After one day in culture, the cells plated on Matrigel died, as is known in the art.

The subject of a further experiment is myosin light chain (MLC). The experiment can be described thus: Western blot of phosphorylated myosin light chain. The format is cell-based, human. As to conditions: one and six hours after plating. How it is done:
HS181 cells were trypsinized into single cell suspension as described above. For inhibition experiments, the cells were kept in O3 medium with blocking antibodies or pathway inhibitors for 30 minutes and then 450K cells were plated on 35 mm dishes precoated with the appropriate matrix coating. For other experiments, same number of cells was plated directly after trypsinization. […] After two washings in ice-cold PBS, the plates with cells were snap frozen in liquid nitrogen and stored at −80° C. To prepare samples for western blots and ELISA, the plates were slowly thawed and kept on ice with 100-150 μl of lysis buffer (50 mM Tris-HCl, pH7.5, 150 mM NaCl, 0.5% deoxycholate, 0.5% SDS, 1% Triton X-100, 1% Igepal, Complete™ (Roche) and Phospho-Stop™ (Roche)) on top. Then, the cells were scraped, pipetted and sheared through a 27G ¾″ needle. After that, the cell pellets were clarified by centrifugation at 16,100 rcf for 15 minutes at 4° C. For western blots, 4-12% gradient gels were used for SDS electrophoresis and the proteins were transferred to PVDF membranes. The membrane was hybridized with the antibody of interest according to the manufacturer's instructions. Chemoluminescent HRP-substrate from Amersham Biosciences was used for visualization. For the densitometry analysis the films were scanned at 2,400 dpi and analyzed by the Chemilmager5500 program (1D-Multi Line densitometry mode). […]

A further experiment relates to mouse ES cells. As to conditions: without LIF or feeder cells; cited from earlier work.
The next experiment addresses Integrin α6β1 (Homo sapiens, UniProt P05556+P23229). As to conditions: cited from earlier work.
Experiment [3] deals with hES cells. The experiment can be described thus: Clonal survival of individualized hES cells (Example 4). The class given is cell-based, human. As to conditions: mTeSR1. On the procedure: hES cells were plated in mTeSR1 medium on different coatings at a density of 250 cells per cm^2 and monitored after 5 days in culture using an alkaline phosphatase staining kit.
Next, combinations of laminin-521 and E-Cadherin were tested to determine whether the combinations could sustain clonal survival of the cells. Fixed amounts of laminin-521 were used for the cell culture dish coating in combination with titrated E-Cadherin.
Additional tests were performed to test the effects of various modifications to the mTeSR1 medium. A mixture of E-Cadherin to laminin-521 in a ratio of about 1:10 w/w was used to coat the plates. […] Time-lapse photography of the cells confirmed that laminin-521/E-Cadherin coatings facilitated cell survival through proliferation of the single cells, not through the aggregation of different cells.

Integrin α6β1, sequence (P23229 24-1130): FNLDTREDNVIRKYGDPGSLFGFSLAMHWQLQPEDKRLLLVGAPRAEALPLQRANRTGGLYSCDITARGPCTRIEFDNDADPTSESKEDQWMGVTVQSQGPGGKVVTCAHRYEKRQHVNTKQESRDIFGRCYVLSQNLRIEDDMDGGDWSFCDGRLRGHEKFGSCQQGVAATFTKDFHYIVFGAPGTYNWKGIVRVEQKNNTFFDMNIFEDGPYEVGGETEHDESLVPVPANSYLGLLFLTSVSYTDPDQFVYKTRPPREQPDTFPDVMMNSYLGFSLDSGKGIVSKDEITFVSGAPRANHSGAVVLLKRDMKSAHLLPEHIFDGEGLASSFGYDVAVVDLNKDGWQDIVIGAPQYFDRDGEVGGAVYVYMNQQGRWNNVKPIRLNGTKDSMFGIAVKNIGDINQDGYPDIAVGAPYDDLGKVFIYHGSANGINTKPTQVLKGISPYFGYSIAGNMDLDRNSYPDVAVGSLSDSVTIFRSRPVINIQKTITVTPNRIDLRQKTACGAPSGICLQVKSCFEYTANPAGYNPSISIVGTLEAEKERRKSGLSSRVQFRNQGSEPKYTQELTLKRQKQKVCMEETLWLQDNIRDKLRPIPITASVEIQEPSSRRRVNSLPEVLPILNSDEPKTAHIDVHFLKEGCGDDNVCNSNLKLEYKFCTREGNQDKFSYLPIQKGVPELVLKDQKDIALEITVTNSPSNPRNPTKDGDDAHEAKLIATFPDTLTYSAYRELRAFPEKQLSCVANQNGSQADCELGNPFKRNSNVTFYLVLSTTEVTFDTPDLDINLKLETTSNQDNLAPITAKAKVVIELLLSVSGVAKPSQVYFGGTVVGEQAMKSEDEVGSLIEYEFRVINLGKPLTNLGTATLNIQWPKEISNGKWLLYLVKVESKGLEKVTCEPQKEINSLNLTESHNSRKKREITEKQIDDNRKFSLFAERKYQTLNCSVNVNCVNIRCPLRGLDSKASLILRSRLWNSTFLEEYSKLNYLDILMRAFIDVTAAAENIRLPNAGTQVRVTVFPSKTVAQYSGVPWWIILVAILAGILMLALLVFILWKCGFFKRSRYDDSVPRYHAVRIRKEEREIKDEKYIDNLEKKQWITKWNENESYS
Integrin α6β1, sequence (P05556 21-798): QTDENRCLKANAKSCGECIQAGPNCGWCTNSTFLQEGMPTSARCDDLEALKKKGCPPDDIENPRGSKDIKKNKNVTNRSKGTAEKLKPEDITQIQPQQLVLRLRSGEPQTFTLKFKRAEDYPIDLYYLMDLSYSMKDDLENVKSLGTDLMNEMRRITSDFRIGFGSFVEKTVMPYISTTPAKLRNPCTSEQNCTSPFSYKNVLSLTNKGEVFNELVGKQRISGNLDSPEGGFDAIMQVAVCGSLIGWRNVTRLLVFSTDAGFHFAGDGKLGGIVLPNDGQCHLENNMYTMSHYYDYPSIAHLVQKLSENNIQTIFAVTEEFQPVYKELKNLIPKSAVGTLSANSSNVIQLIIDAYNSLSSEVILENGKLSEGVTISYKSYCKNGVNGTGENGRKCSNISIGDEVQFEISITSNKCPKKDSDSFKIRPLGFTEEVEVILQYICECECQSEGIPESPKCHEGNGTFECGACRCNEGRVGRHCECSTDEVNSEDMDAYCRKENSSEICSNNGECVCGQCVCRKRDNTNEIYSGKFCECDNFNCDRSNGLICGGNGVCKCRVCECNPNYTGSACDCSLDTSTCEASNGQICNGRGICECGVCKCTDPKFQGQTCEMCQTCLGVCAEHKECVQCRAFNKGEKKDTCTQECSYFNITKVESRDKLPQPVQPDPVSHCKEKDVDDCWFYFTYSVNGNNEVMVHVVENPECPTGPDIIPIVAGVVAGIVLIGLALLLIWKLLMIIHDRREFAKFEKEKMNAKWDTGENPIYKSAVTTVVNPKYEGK

As for `C[C@@H](N)[C@H]1CC[C@H](C(=O)Nc2ccncc2)CC1` [Y-27632, reference compound], in the experiment with hES cells [1] (LN-521 row: absence of ROCK inhibitor, Y-27632 row: presence of ROCK inhibitor), the “cell shape of cells growing on LN-521 24 hours after plating” value is reported as “spindle or crescent like shape”. The “survival of hES cells after 24 hours in the presence of ROCK inhibitor” value in the experiment on hES cells [1] (all coating surfaces) was “survived on all surfaces”. In addition, in the experiment on HS181 cells (O3 medium treated with Y-27632, 5 coatings), the “cells remaining attached after one day with ROCK inhibitor” value was “remained attached on all 5 coatings”.

“LN-111: mouse laminin-111 (Invitrogen), indicated as LN-111 if not otherwise stated”: the “survival of hES cells plated from single cell suspension after 24 hours” value (shortened to “survival of hES cells plated … after 24 hours”) in the experiment with hES cells [1] is on record as “did not survive”. Besides, the “single cell survival / cells remaining attached 24 hours after plating” value in the experiment on HS181 cells is “almost no cells remained attached”.

In the case of “LN-121: human recombinant laminin with α1, β2 and γ1 chains produced in HEK293 cells”, the “survival of hES cells plated … after 24 hours” value in the experiment with hES cells [1] is given as “failed to survive”.

For “LN-511: human recombinant laminin-511 coating”, the “time human ES cells maintain pluripotency and can generate teratomas in SCID mice” value in the experiment with human ES cells is given as “over 3 months”. Further, the “survival of hES cells plated … after 24 hours” value in the experiment with hES cells [1] is “did so as single cells”. Also, the “survival of hES cells plated from single cell suspension after one day in culture” value in experiment [2] is “in most cases on laminin-511 survived and started to proliferate”. In addition, the “phosphorylation of MLC compared with cells on Matrigel and LN-111” value with myosin light chain (MLC) was “even higher”. Besides, the “single cell survival / cells remaining attached 24 hours after plating” value with HS181 cells is reported as “at a less extent”. The “time of supported self-renewal of mouse ES cells” value in the experiment on mouse ES cells is on record as “over 5 months”. In addition, the “binding affinity of integrin α6β1” value with Integrin α6β1 is given as “higher than that for LN-111”.

Regarding “albumin: albumin of the mTeSR1 medium, concentration increased 2×”, the “effect of 2× increase in albumin concentration on clonal survival” value in the experiment with hES cells [3] (laminin-521/E-Cadherin matrix) was “significantly improved clonal survival”.

Take “human recombinant LN-111: human recombinant laminin with α1, β1 and γ1 chains produced in HEK293 cells”: the “survival of hES cells plated … after 24 hours” value in the experiment with hES cells [1] was “failed to survive”.

B1: E-Cadherin: epithelial-cadherin, most abundant cadherin isoform on the human ES cell surface (protein, UniProt P12830 155-882, looked up)
Cadherin-1: DWVIPPISCPENEKGPFPKNLVQIKSNKDKEGKVFYSITGQGADTPPVGVFIIERETGWLKVTEPLDRERIATYTLFSHAVSSNGNAVEDPMEILITVTDQNDNKPEFTQEVFKGSVMEGALPGTSVMEVTATDADDDVNTYNAAIAYTILSQDPELPDKNMFTINRNTGVISVVTTGLDRESFPTYTLVVQAADLQGEGLSTTATAVITVTDTNDNPPIFNPTTYKGQVPENEANVVITTLKVTDADAPNTPAWEAVYTILNDDGGQFVVTTNPVNNDGILKTAKGLDFEAKQQYILHVAVTNVVPFEVSLTTSTATVTVDVLDVNEAPIFVPPEKRVEVSEDFGVGQEITSYTAQEPDTFMEQKITYRIWRDTANWLEINPDTGAISTRAELDREDFEHVKNSTYTALIIATDNGSPVATGTGTLLLILSDVNDNAPIPEPRTIFFCERNPKPQVINIIDADLPPNTSPFTAELTHGASANWTIQYNDPTQESIILKPKMALEVGDYKINLKLMDNQNKDQVTTLEVSVCDCEGAAGVCRKAQPVEAGLQIPAILGILGGILALLILILLLLLFLRRRAVVKEPLLPPEDDTRDNVYYYDEEGGGEEDQDFDLSQLHRGLDARPEVTRNDVAPTLMSVPRYLPRPANPDEIGNFIDENLKAADTDPTAPPYDSLLVFDYEGSGSEAASLSSLNSSESDKDQDYDYLNEWGNRFKKLADMYGGGEDD
On to B1, for which the “clonal survival of individualized hES cells” value in the experiment with hES cells [3] (250 cells per cm^2, 5 days, alkaline phosphatase staining) is recorded as “Neither laminin-521 nor E-Cadherin alone permitted efficient clonal survival”.
